In ChEMBL document CHEMBL4004851, “Room Temperature Neutron Crystallography of Drug Resistant HIV-1 Protease Uncovers Limitations of X-ray Structural Analysis at 100 K” (J Med Chem, 2017):

Key:
[1] = system: Human immunodeficiency virus type 1 protease (Human immunodeficiency virus 1), Q72874 [V32I,I47V,V82I]
[2] = system: Human immunodeficiency virus 1
Description: Binding affinity to wild type HIV1 protease assessed as deltaG level at pH 5.0 and 20 degC by ITC method

[3] = system: Human immunodeficiency virus 1; remark: listed apart in the source
Description: Binding affinity to wild type HIV1 protease assessed as deltaH level at pH 5.0 and 20 degC by ITC method

[4] = system: Human immunodeficiency virus type 1 protease (Human immunodeficiency virus 1), Q72874 [V32I,I47V,V82I]; remark: listed apart in the source
[5] = system: Human immunodeficiency virus type 1 protease (Human immunodeficiency virus 1), Q72874 [V32I,I47V,V82I]; remark: listed apart in the source
[6] = system: Human immunodeficiency virus type 1 protease (Human immunodeficiency virus 1), Q72874 [V32I,I47V,V82I]; remark: listed apart in the source
[7] = system: Human immunodeficiency virus type 1 protease (Human immunodeficiency virus 1), Q72874 [V32I,I47V,V82I]; remark: listed apart in the source
[8] = system: Human immunodeficiency virus type 1 protease (Human immunodeficiency virus 1), Q72874 [V32I,I47V,V82I]; remark: listed apart in the source
[9] = system: Human immunodeficiency virus 1; remark: listed apart in the source
Description: Binding affinity to wild type HIV1 protease assessed as deltaS level at pH 5.0 and 20 degC by ITC method

[10] = system: Human immunodeficiency virus type 1 protease (Human immunodeficiency virus 1), Q72874 [V32I,I47V,V82I]; remark: listed apart in the source
[11] = Binding affinity to wild type HIV1 protease at pH 5.0 and 20 degC by ITC method; design: species or system Human immunodeficiency virus 1
[12] = system: Human immunodeficiency virus 1; assay: Binding affinity to wild type HIV1 protease assessed as -TdeltaS level at pH 5.0 and 20 degC by ITC method
[13] = target: T1, Human immunodeficiency virus type 1 protease (Human immunodeficiency virus 1, UniProt Q72874, I47V/V32I/V82I); assay: Binding affinity to HIV1 protease V32I/I47V/V82I triple mutant at pH 5.8 and 28 degC by ITC method
T1 sequence (Q72874 entry or part of it I47V/V32I/V82I): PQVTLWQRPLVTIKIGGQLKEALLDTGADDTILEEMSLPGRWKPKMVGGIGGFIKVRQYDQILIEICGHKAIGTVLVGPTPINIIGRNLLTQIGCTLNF

[14] = system: Human immunodeficiency virus type 1 protease (Human immunodeficiency virus 1), Q72874 [V32I,I47V,V82I]; remark: listed apart in the source
[15] = target: T1, Human immunodeficiency virus type 1 protease; assay: Binding affinity to HIV1 protease V32I/I47V/V82I triple mutant at pH 4.0 and 28 degC by ITC method

Sequence of Human immunodeficiency virus type 1 protease (Human immunodeficiency virus 1), Q72874 [V32I,I47V,V82I] (Q72874 entry or part of it V32I/I47V/V82I): as the sequence (Q72874 entry or part of it I47V/V32I/V82I) above

What does the source list for `CC(C)CN(C[C@@H](O)[C@H](Cc1ccccc1)NC(=O)O[C@H]1CCOC1)S(=O)(=O)c1ccc(N)cc1` [AMPRENAVIR]?
deltaH [1]: -6 kcal/mol; deltaG [2]: -12.6 kcal/mol; deltaH [3]: -7.3 kcal/mol; -TdeltaS [4]: -4.3 kcal/mol; deltaG [5]: -11 kcal/mol; deltaS [6]: 14 cal/mol.K; deltaS [7]: 14.3 cal/mol.K; deltaH [8]: -6.8 kcal/mol; deltaS [9]: 18.1 cal/mol.K; -TdeltaS [10]: -4.2 kcal/mol; Ki [11]: 0.00039 µM; -TdeltaS [12]: -5.3 kcal/mol; Ki [13]: 0.035 µM; deltaG [14]: -10.2 kcal/mol; Ki [15]: 0.01 µM
